According to article PMC10630888, “Nuclear ERK1/2 signaling potentiation enhances neuroprotection and cognition via Importinα1/KPNA2” (EMBO Molecular Medicine, 2023):
Several values for one entry are separate records, joined by “and”; a condition that tells them apart may be missing. Identical values can stand only once.

Tested on: p-ERK1/2 in DARPP-32+ neurons
Test: p-ERK1/2 in DARPP-32+ iPSC-derived HD MSNs
Assay type: cell-based, human
Settings: for p-ERK1/2 in DARPP-32+ neurons (Fig 5 panel e): individual replicates
Protocol: The human induced pluripotent stem cell line CS09iHD109‐n1 (herein referred to as Q109N1) was originally generated from a human fibroblast line ND39258 (RRID:CVCL_ZC78) with an expanded HTT allele initially containing 109 pure CAG trinucleotides, and the isogenic control lines used were derived by CRISPR gene‐edit to reduce the CAG repeat length to 20 repeats (Mattis et al, [2015]). IPSCS were cultured on hESC‐qualified Matrigel (Corning) in E8‐Flex medium (Thermo Fisher) and passaged with RelesR (Stem Cell Technologies) according to the manufacturer's instructions. For neural differentiation iPSCS were grown to 70% confluency and then treated with 10 μM Y‐27632 (Tocris) for 1 h before harvesting by dissociation to a single cell suspension using accutase (Sigma). IPSCs were replated onto fresh Matrigel‐coated plates at a split ratio of 1:2, in E8‐Flex medium containing 10 μM Y‐27632. After overnight culture, IPSCs at 80–90% confluency were washed with PBS pH 7.4 (Gibco) and then switched to neural induction medium (Advanced DMEM/F12 (1:1) supplemented with 2 mM GlutamaxTM (Gibco), 2% Neurobrew without vitamin A (Miltenyi), 10 μM SB431542, 1 μM LDN 193189 (both Stem Cell Technologies), and 1.5 μM IWR1 (Tocris)). Medium was changed daily until day 8, when cells were passaged 1:2 by cell dissociation with Accutase for 5 min at 37°C and replated on Matrigel® coated plates in LIA medium containing (Advanced DMEM/F12 (1:1) supplemented with 2 mM GlutamaxTM, 2% Neurobrew without vitamin A, 0.2 μM LDN 193189, 1.5 μM IWR1, and 20 ng/ml Activin A (Peprotech)). At day 16, cells were plated for neuronal differentiation according to (Telezhkin et al, [2016]). […]
Images were acquired using a confocal microscope (Zeiss LSM710) under a 20× objective and analyzed with ImageJ software.

GRKKRRQRRRPPQGGGGGEPRRTEGVGPGVPGEVEMVKGQPFDV [RB5, six D-amino acids, acetylated N-terminus]
p-ERK1/2 in DARPP-32+ neurons (Fig 5 panel e) (CTR iPSC-derived MSNs): 32.3403 and 42.5 and 40 and 34.7652 and 35.2993
p-ERK1/2 in DARPP-32+ neurons (HD and isogenic control iPSC-derived MSNs, 50 μM, 30 min): upregulated
p-ERK1/2 in DARPP-32+ neurons (Fig 5 panel e) (HD iPSC-derived MSNs): 36.3889 and 24.1289 and 36.2319 and 31.1704 and 41.2043 and 24.6269
